Laboratory results as given in US10266544B2, “Aryl substituted aminomethyl spectinomycin analogs as antibacterial agents” (ST. JUDE CHILDREN'S RESEARCH HOSPITAL, INC., priority 2013, dated 2019).
Converted amounts (≈) assume the structure as drawn. Structures can show the parent of a compound that is named as a salt. Where two headings read alike, the source gives them in different places.

Legend:
Format in all cases: cell-based
[1] = test system: Neisseria gonorrhoeae (ATCC 49226); assay: Agar MIC determination (Alamar Blue); conditions: ATCC49226, agar MIC, read-out: MIC N.g.
[2] = test system: M. tuberculosis clinical isolates; assay: microbe, parasite or virus in culture; conditions: Mycobacterium tuberculosis
Bacillus anthracis = assay: microbe, parasite or virus in culture; conditions: read-out: MIC B.a.
[3] = test system: acinetobacter baumannii (ATCC 19606); assay: MIC determination, microbroth dilution; conditions: ATCC19606
[4] = test system: Enterococcus faecalis (ATCC 33186); assay: MIC determination, microbroth dilution
[5] = test system: Pseudomonas aeruginosa (PA01); assay: MIC determination, microbroth dilution
[6] = test system: Escherichia coli (ATCC 700926); assay: MIC determination, microbroth dilution; conditions: ATCC700926; Escherichia coli (ATCC 700926); read-out: MIC E.c.
E. coli K12 ΔtolC = assay: microbe, parasite or virus in culture; conditions: Escherichia coli, read-out: MIC E.c. Δtolc
[7] = test system: Bacillus anthracis, Sterne 34F2; assay: microbe, parasite or virus in culture; conditions: STERNE34F2, read-out: MIC B.a.
[8] = test system: Stenotrophomonas maltophilia (ATCC 13637); assay: MIC determination, microbroth dilution
[9] = test system: Streptococcus pneumoniae (R6); assay: MIC determination, microbroth dilution; conditions: read-out: MIC S. pn.
[10] = test system: Burkholderia cepacia (ATCC 25416); assay: MIC determination, microbroth dilution; conditions: Burkholderia cepacia
[11] = test system: Streptococcus pyogenes (ATCC 700294); assay: MIC determination, microbroth dilution
[12] = test system: Bacillus subtilis (ATCC 23857); assay: MIC determination, microbroth dilution
[13] = test system: MRSA, Staphylococcus aureus (NRS70); assay: MIC determination, microbroth dilution; conditions: read-out: MIC MRSA
[14] = test system: Proteus vulgaris (ATCC 33420); assay: MIC determination, microbroth dilution; conditions: ATCC33420
[15] = test system: Staphylococcus aureus (ATCC 29213); assay: MIC determination, microbroth dilution
[16] = test system: Klebsiella pneumoniae (ATCC 33495); assay: MIC determination, microbroth dilution; conditions: ATCC33495
[17] = test system: Proteus mirabilis (ATCC 25933); assay: MIC determination, microbroth dilution; conditions: ATCC25933
[18] = test system: Haemophilus influenza (ATCC 49247); assay: microbe, parasite or virus in culture; conditions: ATCC49247; Haemophilus influenza; 4 μg per disc; range of at least two experiments; read-out: Zone of inhibition H.i.
Moraxella catarrhalis = assay: MIC determination (Table 6)
[19] = test system: Neisseria meningitides (ATCC 13077); assay: Disc diffusion assay; conditions: ATCC13077, 4 μg per disc, read-out: Zone of inhibition N.m.
[20] = test system: Neisseria gonorrhoeae (ATCC 49226); assay: Disc diffusion assay; conditions: ATCC49226, 4 μg per disc, read-out: Zone of inhibition N.g.
Listeria monocytogenes = assay: MIC determination (Table 6)
[21] = test system: Legionella pneumophila (ATCC 33153); assay: microbe, parasite or virus in culture; conditions: ATCC33153, 72 h, read-out: Zone of inhibition L.p.
[22] = ATCC33186, Enterococcus faecalis (ATCC 33186), read-out: MIC E.f.
[23] = ATCC13637, Stenotrophomonas maltophilia (ATCC 13637), read-out: MIC S.m.
[24] = ATCC25416, read-out: MIC B.c., Burkholderia cepacia (ATCC 25416)
[25] = ATCC25416, read-out: MIC B.c., Burkholderia cepacia, Table 6
[26] = ATCC700294, Streptococcus pyogenes (ATCC 700294), read-out: MIC S. py.
[27] = ATCC23857, Bacillus subtilis (ATCC 23857), read-out: MIC B.s.
[28] = ATCC29213, Staphylococcus aureus (ATCC 29213), read-out: MIC S.a.

SMILES	MIC ([2]; H37RV, read-out: MIC H37Rv)	MIC (Bacillus anthracis)	MIC [3]	MIC [5]	MIC [6]	MIC [7]	MIC [8, 23]	MIC ([9]; Streptococcus pneumoniae (R6))	MIC [10, 24]	MIC [10, 25]	MIC [11, 26]	MIC [12, 27]	MIC ([13]; Staphylococcus aureus (NRS70))	MIC [14]	MIC [15, 28]	MIC [16]	MIC [17]	zone of inhibition at 4 µg/disc [18]	zone of inhibition at 4 µg/disc [19]	zone of inhibition at 4 µg/disc [20]	other results
CN[C@@H]1[C@H](O)[C@H](NC)[C@H]2O[C@]3(O)[C@H](O[C@@H]2[C@H]1O)O[C@H](C)C[C@@]3(O)CNCc1cnc[nH]1 [compound 20]	6.3 µg/mL (≈ 14.2 µM)	50 to 100 µg/mL (≈ 113 to 225 µM)	> 200 µg/mL	200 µg/mL (≈ 451 µM)	50 µg/mL (≈ 113 µM)	50 to 100 µg/mL (≈ 113 to 225 µM)	3.1 to 6.3 µg/mL (≈ 6.99 to 14.2 µM)	25 to 50 µg/mL (≈ 56.4 to 113 µM)	100 to 200 µg/mL (≈ 225 to 451 µM)	100 to 200 µg/mL (≈ 225 to 451 µM)	50 µg/mL (≈ 113 µM)	25 µg/mL (≈ 56.4 µM)	≥ 200 µg/mL	100 to 200 µg/mL (≈ 225 to 451 µM)	200 µg/mL (≈ 451 µM)	50 to 100 µg/mL (≈ 113 to 225 µM)	200 µg/mL (≈ 451 µM)				MIC [1]: 100 to 200 µg/mL (≈ 225 to 451 µM); MIC [4, 22]: 100 µg/mL (≈ 225 µM); MIC (E. coli K12 ΔtolC): 25 µg/mL (≈ 56.4 µM)
CN[C@@H]1[C@H](O)[C@H](NC)[C@H]2O[C@]3(O)[C@H](O[C@@H]2[C@H]1O)O[C@H](C)C[C@@]3(O)CNCc1cccc(OC(F)(F)F)c1 [compound 25, 3′-(R)-3′-[(3-trifluoromethoxyl)benzylaminomethyl)]dihydrospectinomycin Trihydrochloride]	200 µg/mL	25 µg/mL		50 to 100 µg/mL		25 µg/mL	12.5 to 25 µg/mL	1.6 to 3.1 µg/mL		> 200 µg/mL	1.6 µg/mL	12.5 to 25 µg/mL	50 µg/mL	> 200 µg/mL	25 to 50 µg/mL		> 200 µg/mL	9 to 10 mm	18 mm	18 mm	MIC [4, 22]: 12.5 to 25 µg/mL; MIC (Moraxella catarrhalis): 6.3 µg/mL; MIC (Listeria monocytogenes): 6.3 µg/mL; zone of inhibition at 4 µg/disc [21]: 19 mm
CN[C@@H]1[C@H](O)[C@H](NC)[C@H]2O[C@]3(O)[C@H](O[C@@H]2[C@H]1O)O[C@H](C)C[C@@]3(O)CNCc1ccc(C)cc1C [compound 24, 3′-(R)-3′-[(2,4-dimethyl)benzylaminomethyl)]dihydrospectinomycin Trihydrochloride]	25 µg/mL	50 µg/mL	200 µg/mL	50 µg/mL	25 µg/mL	50 µg/mL	25 to 50 µg/mL	3.1 µg/mL	> 200 µg/mL	> 200 µg/mL	1.6 µg/mL	12.5 µg/mL	50 µg/mL	200 µg/mL	6.3 to 12.5 µg/mL	100 to 200 µg/mL	> 200 µg/mL	14 mm	17 mm	18 mm	MIC [4, 22]: 12.5 µg/mL; MIC (E. coli K12 ΔtolC): 12.5 to 25 µg/mL; MIC (Moraxella catarrhalis): 1.6 µg/mL; MIC (Listeria monocytogenes): 12.5 µg/mL; zone of inhibition at 4 µg/disc [21]: 18 mm
CN[C@@H]1[C@H](O)[C@H](NC)[C@H]2O[C@]3(O)[C@H](O[C@@H]2[C@H]1O)O[C@H](C)C[C@@]3(O)CNCc1nc2ccccc2s1 [compound 34, 3′-(A′)-3′-(benzo[d]thiazolylmethyl)aminomethyl dihydrospectinomycin Trihydrobromide]	12.5 µg/mL		> 200 µg/mL	> 200 µg/mL		50 µg/mL	100 µg/mL	6.3 µg/mL	> 200 µg/mL		3.1 µg/mL	50 to 100 µg/mL	100 to 200 µg/mL	> 200 µg/mL	50 to 100 µg/mL	100 to 200 µg/mL	> 200 µg/mL	7 mm	12 mm	8 mm	MIC [1]: 100 µg/mL; MIC [4, 22]: 25 µg/mL
CN[C@@H]1[C@H](O)[C@H](NC)[C@H]2O[C@]3(O)[C@H](O[C@@H]2[C@H]1O)O[C@H](C)C[C@@]3(O)CNCc1ccc(C(C)C)cc1 [compound 23, 3′-(R)-3′-[(4-isopropyl)benzylaminomethyl)]dihydrospectinomycin Trihydrochloride]	25 µg/mL	12.5 µg/mL	50 µg/mL	25 µg/mL	12.5 µg/mL	12.5 µg/mL	6.3 µg/mL	1.6 to 3.1 µg/mL	> 200 µg/mL	> 200 µg/mL	1.6 µg/mL	6.3 µg/mL		> 200 µg/mL		50 µg/mL	> 200 µg/mL	15 mm	17 mm	18 mm	MIC ([4]; Enterococcus faecalis, ATCC33186, read-out: MIC E.f.): 12.5 µg/mL; MIC (E. coli K12 ΔtolC): 3.1 to 6.3 µg/mL; MIC (Moraxella catarrhalis): 3.1 to 6.3 µg/mL; MIC (Listeria monocytogenes): 6.3 µg/mL; zone of inhibition at 4 µg/disc [21]: 12 mm; MIC ([13]; Staphylococcus aureus): 12.5 µg/mL; MIC ([15]; Staphylococcus aureus, ATCC29213, read-out: MIC S.a.): 12.5 to 25 µg/mL
CN[C@@H]1[C@H](O)[C@H](NC)[C@H]2O[C@]3(O)[C@H](O[C@@H]2[C@H]1O)O[C@H](C)C[C@@]3(O)CNCCc1ccc(OC)cc1 [compound 53, 3′-(R)-3′-[(4-methoxy)phenethylaminomethyl]dihydrospectinomycin Trihydrochloride]	6.3 µg/mL	25 to 50 µg/mL	> 200 µg/mL	> 200 µg/mL	50 µg/mL	25 to 50 µg/mL			> 200 µg/mL	> 200 µg/mL			100 µg/mL	200 µg/mL	25 µg/mL	100 to 200 µg/mL	> 200 µg/mL	11 mm	10 mm	12 mm	MIC ([2]; read-out: MIC TN022): 12.5 µg/mL; MIC ([2]; read-out: MIC TN026): 12.5 µg/mL; MIC (E. coli K12 ΔtolC): 12.5 µg/mL; MIC (Moraxella catarrhalis): 3.1 µg/mL; MIC ([8]; Stenotrophomonas maltophilia, ATCC13637, read-out: MIC S.m.): 12.5 µg/mL; MIC (Listeria monocytogenes): 6.3 µg/mL; MIC ([9]; Streptococcus pneumoniae): 12.5 µg/mL; zone of inhibition at 4 µg/disc [21]: 30 mm; MIC ([11]; Streptococcus pyogenes, ATCC700294, read-out: MIC S. py.): 12.5 to 25 µg/mL; MIC ([12]; Bacillus subtilis, ATCC23857, read-out: MIC B.s.): 12.5 µg/mL
CN[C@@H]1[C@H](O)[C@H](NC)[C@H]2O[C@]3(O)[C@H](O[C@@H]2[C@H]1O)O[C@H](C)C[C@@]3(O)CNCCC1CCOCC1 [compound 52, 3′-(R)-3′-[(2-(tetrahydro-2H-pyran-4-yl)ethyl)aminomethyl]dihydrospectinomycin Trihydrochloride]	3.1 µg/mL	50 to 100 µg/mL	> 200 µg/mL	> 200 µg/mL	50 to 100 µg/mL	50 to 100 µg/mL	12.5 to 25 µg/mL	25 to 50 µg/mL	> 200 µg/mL	> 200 µg/mL	100 µg/mL	25 µg/mL	> 200 µg/mL	> 200 µg/mL	200 µg/mL	100 µg/mL	200 µg/mL	10 mm	12 mm	7 mm	MIC ([2]; read-out: MIC TN022): 6.3 µg/mL; MIC ([2]; read-out: MIC TN026): 3.1 µg/mL; MIC (E. coli K12 ΔtolC): 25 to 50 µg/mL; MIC (Moraxella catarrhalis): 3.1 µg/mL; MIC (Listeria monocytogenes): 12.5 µg/mL; zone of inhibition at 4 µg/disc [21]: 32 mm
